Data on 29 compounds can be found in patent publication US9850225B2, “Compounds useful as immunomodulators” (BRISTOL-MYERS SQUIBB COMPANY, priority 2014, dated 2017).

The IC50 is the concentration that inhibits the measured activity by half.

In this assay the target is PD-1/PD-L1 interaction (PD-1-Ig / PD-L1-His) (Homo sapiens (Human), UniProt Q9NZQ7). Kind of assay: PD-1/PD-L1 Homogenous Time-Resolved Fluorescence (HTRF) binding assay. To be noted: read-out: Range or IC50. From the text:
The ability of the compounds of formula (I) to bind to PD-L1 was investigated using a PD-1/PD-L1 Homogenous Time-Resolved Fluorescence (HTRF) binding assay.
Homogenous Time-Resolved Fluorescence (HTRF) Binding Assay.
The interaction of PD-1 and PD-L1 can be assessed using soluble, purified preparations of the extracellular domains of the two proteins. The PD-1 and PD-L1 protein extracellular domains were expressed as fusion proteins with detection tags, for PD-1, the tag was the Fc portion of Immunoglobulin (PD-1-Ig) and for PD-L1 it was the 6 histidine motif (PD-L1-His). All binding studies were performed in an HTRF assay buffer consisting of dPBS supplemented with 0.1% […] bovine serum albumin and 0.05% (v/v) Tween-20. For the h/PD-L1-His binding assay, inhibitors were pre-incubated with PD-L1-His (10 nM final) for 15 m in 4 μl of assay buffer, followed by addition of PD-1-Ig (20 nM final) in 1 μl of assay buffer and further incubation for 15 m. HTRF detection was achieved using europium crypate-labeled anti-Ig (1 nM final) and allophycocyanin (APC) labeled anti-His (20 nM final). Antibodies were diluted in HTRF detection buffer and 5 μl was dispensed on top of the binding reaction. […] Additional binding assays were established between the human proteins PD-1-Ig/PD-L2-His (20 & 5 nM, respectively) and CD80-His/PD-L1-Ig (100 & 10 nM, respectively). […]
On the technique in general: Time-resolved FRET reads energy transfer from a long-lived donor to a nearby acceptor.

Setting [1] is: PD-1/PD-L1 HTRF binding assay, value given as range class.

Read-outs that look alike come from different tables or passages of the source.

PD-1/PD-L1 interaction (PD-1-Ig / PD-L1-His), sequence (Q9NZQ7 other isoform, or with tags, fused parts or gaps): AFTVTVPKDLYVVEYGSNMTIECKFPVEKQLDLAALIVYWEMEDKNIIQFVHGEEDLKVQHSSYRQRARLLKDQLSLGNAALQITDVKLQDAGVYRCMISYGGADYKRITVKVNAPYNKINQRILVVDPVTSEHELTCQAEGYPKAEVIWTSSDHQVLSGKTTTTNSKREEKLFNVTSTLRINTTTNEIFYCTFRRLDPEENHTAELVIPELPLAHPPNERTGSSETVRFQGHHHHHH

Regarding `CC(=O)NCCNCc1ccc(OCc2cccc(-c3ccccc3)c2C)cc1OCc1ccc(C(F)(F)F)cc1` [Example 1052, N-(2-((4-((2-methyl-[1,1′-biphenyl]-3-yl)methoxy)-2-((4-(trifluoromethyl)benzyl)oxy)benzyl)amino)ethyl)acetamide], the IC50 under setting [1] is 100 to 20000 nM.
As to `CC(=O)NCCNCc1ccc(OCc2cccc(-c3ccccc3)c2C)cc1OCc1ccccc1Cl` [Example 1053, N-(2-((2-((2-chlorobenzyl)oxy)-4-((2-methyl-[1,1′-biphenyl]-3-yl)methoxy)benzyl)amino)ethyl)acetamide], the IC50 under setting [1] was 100 to 20000 nM.
On the same count and under the same terms, the same measure for `CC(=O)NCCNCc1ccc(OCc2cccc(-c3ccccc3)c2C)cc1OCc1cccc(Cl)c1` [Example 1054, N-(2-((2-((3-chlorobenzyl)oxy)-4-((2-methyl-[1,1′-biphenyl]-3-yl)methoxy)benzyl)amino)ethyl)acetamide]: 100 to 20000 nM; for `CC(=O)NCCNCc1ccc(OCc2cccc(-c3ccccc3)c2C)cc1OCc1ccccc1C#N` [Example 1055, N-(2-((2-((2-cyanobenzyl)oxy)-4-((2-methyl-[1,1′-biphenyl]-3-yl)methoxy)benzyl)amino)ethyl)acetamide]: 100 to 20000 nM; for `CC(=O)NCCNCc1ccc(OCc2cccc(-c3ccccc3)c2C)cc1OCc1ccc2ccccc2c1` [Example 1056, N-(2-((4-((2-methyl-[1,1′-biphenyl]-3-yl)methoxy)-2-(naphthalen-2-ylmethoxy)benzyl)amino)ethyl)acetamide]: 100 to 20000 nM.
`CC(=O)NCCNCc1ccc(OCc2cccc(-c3ccccc3)c2C)cc1OCc1ccccc1[N+](=O)[O-]` [Example 1057, N-(2-((4-((2-methyl-[1,1′-biphenyl]-3-yl)methoxy)-2-((2-nitrobenzyl)oxy)benzyl)amino)ethyl)acetamide]: for the setting “PD-1/PD-L1 HTRF binding assay, numeric value”, the IC50 stood at 986 nM.
With `CC(=O)NCCNCc1ccc(OCc2cccc(-c3ccccc3)c2C)cc1OCc1ccc([N+](=O)[O-])cc1` [Example 1058, N-(2-((4-((2-methyl-[1,1′-biphenyl]-3-yl)methoxy)-2-((4-nitrobenzyl)oxy)benzyl)amino)ethyl)acetamide], the IC50 under setting [1] lay in the range of 100 to 20000 nM.
Consider `CC(=O)NCCNCc1ccc(OCc2cccc(-c3ccccc3)c2C)cc1OCc1ccc(F)c(F)c1` [Example 1059, N-(2-((2-((3,4-difluorobenzyl)oxy)-4-((2-methyl-[1,1′-biphenyl]-3-yl)methoxy)benzyl)amino)ethyl)acetamide], for which the IC50 under setting [1] lay in the range of 100 to 20000 nM.
As for `CC(=O)NCCNCc1ccc(OCc2cccc(-c3ccccc3)c2C)cc1OCc1cc(F)ccc1F` [Example 1060, N-(2-((2-((2,5-difluorobenzyl)oxy)-4-((2-methyl-[1,1′-biphenyl]-3-yl)methoxy)benzyl)amino)ethyl)acetamide], under setting [1], the 50% inhibitory concentration (IC50) was 100 to 20000 nM.
On the same count and under the same terms, the same measure for `CC(=O)NCCNCc1ccc(OCc2cccc(-c3ccccc3)c2C)cc1OCc1cc(C(F)(F)F)cc(C(F)(F)F)c1` [Example 1061, N-(2-((2-((3,5-bis(trifluoromethyl)benzyl)oxy)-4-((2-methyl-[1,1′-biphenyl]-3-yl)methoxy)benzyl)amino)ethyl)acetamide]: 100 to 20000 nM; for `CC(=O)NCCNCc1ccc(OCc2cccc(-c3ccccc3)c2C)cc1OCc1cc(F)cc(F)c1` [Example 1062, N-(2-((2-((3,5-difluorobenzyl)oxy)-4-((2-methyl-[1,1′-biphenyl]-3-yl)methoxy)benzyl)amino)ethyl)acetamide]: 100 to 20000 nM.
For `CC(=O)NCCNCc1ccc(OCc2cccc(-c3ccccc3)c2C)cc1OCc1cccc2ccccc12` [Example 1063, N-(2-((4-((2-methyl-[1,1′-biphenyl]-3-yl)methoxy)-2-(naphthalen-1-ylmethoxy)benzyl)amino)ethyl)acetamide], the IC50 under setting [1] was 100 to 20000 nM.
With `CC(=O)NCCNCc1ccc(OCc2cccc(-c3ccccc3)c2C)cc1OCc1ccc(F)cc1F` [Example 1064, N-(2-((2-((2,4-difluorobenzyl)oxy)-4-((2-methyl-[1,1′-biphenyl]-3-yl)methoxy)benzyl)amino)ethyl)acetamide], the 50% inhibitory concentration (IC50) under setting [1] was in the range of 100 to 20000 nM.
For `CC(=O)NCCNCc1ccc(OCc2cccc(-c3ccccc3)c2C)cc1OCc1cc(C)cc(C)c1` [Example 1065, N-(2-((2-((3,5-dimethylbenzyl)oxy)-4-((2-methyl-[1,1′-biphenyl]-3-yl)methoxy)benzyl)amino)ethyl)acetamide], the IC50 under setting [1] fell in the range of 100 to 20000 nM.
The same measure, in the same setting: the same measure for `CC(=O)NCCNCc1ccc(OCc2cccc(-c3ccccc3)c2C)cc1OCc1ccccc1C(F)(F)F` [Example 1066, N-(2-((4-((2-methyl-[1,1′-biphenyl]-3-yl)methoxy)-2-((2-(trifluoromethyl)benzyl)oxy)benzyl)amino)ethyl)acetamide]: 100 to 20000 nM.
Still for that read-out and setting: then `COC(=O)c1ccc(COc2cc(OCc3cccc(-c4ccccc4)c3C)ccc2CNCCNC(C)=O)cc1` [Example 1067, methyl 4-((2-(((2-acetamidoethyl)amino)methyl)-5-((2-methyl-[1,1′-biphenyl]-3-yl)methoxy)phenoxy)methyl)benzoate], with 100 to 20000 nM; and `CC(=O)NCCNCc1ccc(OCc2cccc(-c3ccccc3)c2C)cc1OCc1ccc(Cl)cc1` [Example 1068, N-(2-((2-((4-chlorobenzyl)oxy)-4-((2-methyl-[1,1′-biphenyl]-3-yl)methoxy)benzyl)amino)ethyl)acetamide], with 100 to 20000 nM.
The same measure, in the same setting: the same measure for `CC(=O)NCCNCc1ccc(OCc2cccc(-c3ccccc3)c2C)cc1OCc1ccc(Cl)c(Cl)c1` [Example 1069, N-(2-((2-((3,4-dichlorobenzyl)oxy)-4-((2-methyl-[1,1′-biphenyl]-3-yl)methoxy)benzyl)amino)ethyl)acetamide]: 100 to 20000 nM; for `CC(=O)NCCNCc1ccc(OCc2cccc(-c3ccccc3)c2C)cc1OCc1cccc(C)c1F` [Example 1070, N-(2-((2-((2-fluoro-3-methylbenzyl)oxy)-4-((2-methyl-[1,1′-biphenyl]-3-yl)methoxy)benzyl)amino)ethyl)acetamide]: 100 to 20000 nM; for `CC(=O)NCCNCc1ccc(OCc2cccc(-c3ccccc3)c2C)cc1OCc1cccc(F)c1F` [Example 1071, N-(2-((2-((2,3-difluorobenzyl)oxy)-4-((2-methyl-[1,1′-biphenyl]-3-yl)methoxy)benzyl)amino)ethyl)acetamide]: 100 to 20000 nM.
Regarding `CC(=O)NCCNCc1ccc(OCc2cccc(-c3ccccc3)c2C)cc1OCc1cccc(Cl)c1F` [Example 1072, N-(2-((2-((3-chloro-2-fluorobenzyl)oxy)-4-((2-methyl-[1,1′-biphenyl]-3-yl)methoxy)benzyl)amino)ethyl)acetamide], the 50% inhibitory concentration (IC50) under setting [1] fell in the range of 100 to 20000 nM.
Take `CC(=O)NCCNCc1ccc(OCc2cccc(-c3ccccc3)c2C)cc1OCc1cccc(C(=O)c2ccccc2)c1` [Example 1073, N-(2-((2-((3-benzoylbenzyl)oxy)-4-((2-methyl-[1,1′-biphenyl]-3-yl)methoxy)benzyl)amino)ethyl)acetamide]: under setting [1], the half-inhibitory concentration (IC50) was in the range of 100 to 20000 nM.
The same measure, in the same setting: then `CC(=O)NCCNCc1ccc(OCc2cccc(-c3ccccc3)c2C)cc1OCc1cccc2cccnc12` [Example 1074, N-(2-((4-((2-methyl-[1,1′-biphenyl]-3-yl)methoxy)-2-(quinolin-8-ylmethoxy)benzyl)amino)ethyl)acetamide], with 100 to 20000 nM; and `CC(=O)NCCNCc1ccc(OCc2cccc(-c3ccccc3)c2C)cc1OCc1ccc(F)cc1` [Example 1075, N-(2-((2-((4-fluorobenzyl)oxy)-4-((2-methyl-[1,1′-biphenyl]-3-yl)methoxy)benzyl)amino)ethyl)acetamide], with 100 to 20000 nM.
With `CC(=O)NCCNCc1ccc(OCc2cccc(-c3ccccc3)c2C)cc1OCc1cccc([N+](=O)[O-])c1` [Example 1076], the 50% inhibitory concentration (IC50) was in the range of 10 to 100 nM.
For the compound `CC(=O)NCCNCc1ccc(OCc2cccc(-c3ccccc3)c2C)cc1OCc1cccc(Oc2ccccc2F)c1` [Example 1077, N-(2-((2-((3-(2-fluorophenoxyl)benzyl)oxy)-4-((2-methyl-[1,1′-biphenyl]-3-yl)methoxy)benzyl)amino)ethyl)acetamide], the concentration for half-maximal inhibition (IC50) under setting [1] is 100 to 20000 nM.
On the same count and under the same terms, the same measure for `CC(=O)NCCNCc1ccc(OCc2cccc(-c3ccccc3)c2C)cc1OCc1cccc(Oc2ccc(F)cc2)c1` [Example 1078, N-(2-((2-((3-(4-fluorophenoxyl)benzyl)oxy)-4-((2-methyl-[1,1′-biphenyl]-3-yl)methoxy)benzyl)amino)ethyl)acetamide]: 100 to 20000 nM; for `CC(=O)NCCNCc1ccc(OCc2cccc(-c3ccccc3)c2C)cc1OCc1cc(C(F)(F)F)ccc1F` [Example 1080, N-(2-((2-((2-fluoro-5-(trifluoromethyl)benzyl)oxy)-4-((2-methyl-[1,1′-biphenyl]-3-yl)methoxy)benzyl)amino)ethyl)acetamide]: 100 to 20000 nM.
On to `CC(=O)NCCNCc1ccc(OCc2cccc(-c3ccccc3)c2C)cc1OCc1cc(F)cc(C(F)(F)F)c1` [Example 1081, N-(2-((2-((3-fluoro-5-(trifluoromethyl)benzyl)oxy)-4-((2-methyl-[1,1′-biphenyl]-3-yl)methoxy)benzyl)amino)ethyl)acetamide], for which the concentration for half-maximal inhibition (IC50) under setting [1] lay within 100 to 20000 nM.
